In series [1] the test system is anaphylactic histamine release from lung fragments. Nature of the series: Inhibition of anaphylactic histamine release (passively sensitized lung fragments, antigen challenge). Conditions: Cavia porcellus, 0.25 h; guinea pig lung fragments; DNP-egg albumin 0.3 μg/ml; compound added 10 min before antigen challenge; 37° C.; read-out: 25%-inhibitory conc. (anaphylactic histamine release). In kind it is cell-based, Hartley male guinea pig. As for the experimental part: Inhibition of anaphylactic histamine release
Hartley male guinea pigs weighing about 450 g which were passively sensitized with an anti-DNP-egg albumin guinea pig serum were killed with a thiopentbarbital anesthetia. Their lungs were perfused by way of the pulmonary artery with a Tyrode's solution. The lungs were removed and fragmented. A definite weight of 100 mg lung fragments, which was distributed into individual tubes and suspended in 1 ml of Tyrode's solution, was challenged with the antigen (DNP-egg albumin, final concentration: 0.3 μg/ml) at 37° C. for 15 min. The test compounds obtained in Example, which were dissolved or suspended in Tyrode's solution, were added 10 min before antigen challenge. The reaction was stopped by immersing in ice cold water, and then centrifuged. The amount of histamine in the supernatant fluid was measured by using fluoremetric method according to Shore et al.
A: amount of histamine released by the antigen stimulation in the presence of a compound of the present invention
B: amount of histamine released spontaneously
C: amount of histamine released by the antigen stimulation.

For series [2], the system named is isolated heart. The series can be described thus: Langendorff perfused isolated heart: perfusion pressure, contractive force, heart rate. On the set-up: species or system Wistar male rat. Conditions: for Contractive force (Δ %) / Heart rate (Δ %) / Perfusion pressure (Δ %): means value ± S.D., n = 3-4. As for the experimental part:
Hearts were isolated from Std; Wistar male rats weighing 200-300 g (9-10 weeks old). The hearts were perfused using Langendorff's apparatus at a flow rate of 8 ml/min. As a perfusate, Krebs-Henseleit-bicarbonate solution (37° C., pH 7.4) containing 11 mM glucose, oxygenated with a mixed gas of 95% O2 and 5% CO2 was used. The heart was preloaded with an initial resting tension of 2.0 g and paced at 200-300 beats min^-1. After the hearts were allowed to be stable for 30-60 minutes, 0.1 ml of a solution of each test compound in 10% DMSO was added thereto to be a concentration of 0.1, 1.0, 10 or 100 μg of each compound per heart.
Myocardial contractile force was isometrically measured by means of a force-displacement transducer (Type: TB-612T, made by Nihon Kohden Kogyo KK) connected to the apex of the heart through a thread. Coronary perfusion pressure was monitored by an electric manometer (Type: MPU-0.5, made by Nihon Kohden Kogyo KK) connected to a side branch of the aortic cannule.
[formula] A: value before adding a test compound B: value after adding a test compound

Series [3] has as its target T1, histamine-induced constriction of tracheal smooth muscle (Cavia porcellus, UniProt P31389).
T1 construct: Isolated tracheal smooth muscle chain strips were prepared by a usual method; from tissue; host or cells: isolated tracheal smooth muscle chain strips of Hartley male guinea pigs
The series can be described thus: Antihistaminic activity (isolated tracheal smooth muscle chain strips, histamine constriction). The following applies: guinea pig tracheal strip; compound 5 min prior to histamine; Van Rossum; read-out: pA2 (converted). In kind it is cell-based, Hartley male guinea pig. As for the experimental part: Hartley male guinea pigs weighing 500-600 g were used. Isolated tracheal smooth muscle chain strips were prepared by a usual method and suspended in 2 ml organ bath of Tyrode's solution aerated with 95% O2.5 % CO2 at 37° C. Each strip was attached to an isotonic transducer (made by Nihon Koden Kogyo KK) with a load of 0.5 g. After almost constant contraction, histamine was added cumulatively, until maximum constriction was obtained. The constriction of tracheal strip was recorded by Servocorder (made by Giraphtec KK). The strip was washed with Tyrode's solution and allowed to stabilize. Test compound was to the bath 5 min prior to the addition of histamine and the response curve to the histamine was repeated. The pA2 values were calculated using the techniques of Van Rossum.

The nature of series [4]: Acute oral toxicity (LD50). Conditions: mouse, in vivo, mice 22-27 g, ddY, male, 5 weeks. As for the experimental part:
The LD50 of the compounds obtained in Examples 1, 34, 37, 40 and 44 were more than 500 mg/kg when these compounds were given orally to mice weighing 22-27 g (ddY, male, 5 weeks).

The mark [5] stands for this setting: 1 μg/heart, ** p <0.01 vs control.
Setting [6] is: 10 μg/heart, ** p <0.01 vs control.
[7] abbreviates: 100 μg/heart, ** p <0.01 vs control.

Where a name gives a salt, the structure may show the parent alone.

T1 sequence (P31389 whole entry): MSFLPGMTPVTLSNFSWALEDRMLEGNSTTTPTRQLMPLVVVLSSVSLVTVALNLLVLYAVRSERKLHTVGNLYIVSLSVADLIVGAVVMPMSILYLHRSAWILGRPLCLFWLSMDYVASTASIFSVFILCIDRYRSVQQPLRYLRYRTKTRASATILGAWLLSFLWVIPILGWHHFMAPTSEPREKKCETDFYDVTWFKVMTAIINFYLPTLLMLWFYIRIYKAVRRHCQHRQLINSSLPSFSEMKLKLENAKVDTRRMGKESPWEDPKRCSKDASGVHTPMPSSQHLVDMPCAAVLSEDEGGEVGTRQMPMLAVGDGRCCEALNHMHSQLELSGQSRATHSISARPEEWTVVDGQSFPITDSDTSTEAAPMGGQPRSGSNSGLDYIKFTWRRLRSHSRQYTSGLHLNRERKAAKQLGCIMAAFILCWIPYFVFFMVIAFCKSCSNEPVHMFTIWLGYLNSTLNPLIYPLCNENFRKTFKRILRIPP

Take `CC(C)c1ccc2oc3nc(N)c(C(=O)O)cc3c(=O)c2c1` [Amlexanox, reference compound]: in series [1], the IC25 stood at 30 µM.
In the case of `COc1ccc([C@@H]2Sc3ccccc3N(CCN(C)C)C(=O)[C@@H]2OC(C)=O)cc1` [Diltiazem hydrochloride, reference compound], the “Contractive force (Δ %)” value is given as 3.5 ± 6.9% in series [2] (0.1 μg/heart), 7.0 ± 16.1% in series [2] (setting [5]), -67.1 ± 17.5% in series [2] (setting [6]) and -86.5 ± 7.0% in series [2] (setting [7]). Moreover, the “Heart rate (Δ %)” value in series [2] (0.1 μg/heart) is -2.7 ± 1.8%; in series [2] (1 μg/heart), -3.5 ± 2.4%; in series [2] (setting [6]), -25.9 ± 30.3%; in series [2] (setting [7]), -71.4 ± 11.9%. The “Perfusion pressure (Δ %)” value in series [2] (setting [5]) is given as -32.1 ± 6.9%; in series [2] (setting [6]) it was -47.1 ± 1.4%; in series [2] (setting [7]), -48.8 ± 1.4%. The “contractive force (in words)” value in series [2] (10 μg/heart) is given as “significant lowerings”. Further, in series [2] (10 μg/heart), the “heart rates (in words)” value is “significant lowerings”.
Usually LD50 stands for the dose expected to kill half of the subjects tested. A higher LD50 goes with a less toxic substance. On to `CS(=O)(=O)Nc1ccccc1OCCCN1CCC(OC(c2ccccc2)c2ccccc2)CC1` [Example 1, 4-diphenylmethoxy-1-[3-(2-methanesulfonylaminophenoxy)propyl]piperidine], for which the IC25 in series [1] was 1 µM. For the same molecule, in series [3], the Kb is 0.002 µM. For the same molecule, the “Contractive force (Δ %)” value in series [2] (0.1 μg/heart) was 2.0 ± 3.6%; in series [2] (setting [5]) it was 11.9 ± 2.4%; in series [2] (setting [6]) it was 11.8 ± 2.3%; in series [2] (setting [7]), -25.0 ± 6.8%. Moreover, the “Heart rate (Δ %)” value is recorded as 0.7 ± 1.2% in series [2] (0.1 μg/heart), -0.7 ± 1.2% in series [2] (1 μg/heart), -0.7 ± 1.2% in series [2] (setting [6]) and -16.6 ± 15.6% in series [2] (setting [7]). Moreover, the “Perfusion pressure (Δ %)” value in series [2] (0.1 μg/heart) is listed as -8.39 ± 3.4%; in series [2] (setting [5]) it was -24.8 ± 3.0%; in series [2] (setting [6]) it was -42.9 ± 3.2%; in series [2] (setting [7]), -49.0 ± 4.8%. For the same molecule, the LD50 in series [4] was > 500 mg/kg.
On to `CS(=O)(=O)Nc1ccccc1OCCCN1CCC(OC(c2ccc(Cl)cc2)c2ccccn2)CC1` (stereo not drawn) [Example 33, 4-[(4-chlorophenyl)-2-pyridylmethoxy]-1-[3-(2-methanesulfonylaminophenoxy)propyl]piperidine], for which the “Contractive force (Δ %)” value is given as 5.0 ± 4.3% in series [2] (0.1 μg/heart), 13.3 ± 1.9% in series [2] (setting [5]), 16.0 ± 4.5% in series [2] (setting [6]) and -46.2 ± 13.4% in series [2] (setting [7]). Moreover, the “Heart rate (Δ %)” value in series [2] (0.1 μg/heart) is -1.2 ± 2.1%; in series [2] (1 μg/heart) it was -1.9 ± 1.8%; in series [2] (setting [6]), -4.6 ± 4.7%; in series [2] (setting [7]), -17.2 ± 10.1%. The “Perfusion pressure (Δ %)” value in series [2] (0.1 μg/heart) is on record as -7.0 ± 6.1%; in series [2] (setting [5]), -19.2 ± 2.2%; in series [2] (setting [6]), -39.1 ± 5.4%; in series [2] (setting [7]), -40.1 ± 5.2%.
For the molecule `CS(=O)(=O)Nc1ccccc1OCCCN1CCC(OC(c2ccccc2)c2cccnc2)CC1` (stereo not drawn) [Example 34 (fumarate)], the IC25 in series [1] was determined as 1 µM. Besides, the Kb in series [3] was 0.000126 µM.
For `CS(=O)(=O)Nc1ccccc1OCCCN1CCC(OC(c2ccccc2)c2cccnc2)CC1` (stereo not drawn) [Example 34, 4-(phenyl-3-pyridylmethoxy)-1-[3-(2-methanesulfonylaminophenoxy)propyl]piperidine], the LD50 in series [4] was > 500 mg/kg.
For the molecule `CS(=O)(=O)Nc1ccccc1OCCCN1CCC(OC(c2ccccc2)c2cccs2)CC1` (stereo not drawn) [Example 36 (fumarate)], in series [1], the IC25 was determined as 0.1 µM. In series [3], the Kb was 0.00251 µM.
On to `CC(CCOc1ccccc1NS(C)(=O)=O)N1CCC(OC(c2ccccc2)c2cccs2)CC1` (stereo not drawn) [Example 37, 4-(phenyl-2-thienylmethoxy)-1-[3-(2-methanesulfonylaminophenoxy)-1-methylpropyl]piperidine], for which the IC25 in series [1] came to 0.1 µM. Further, the Kb in series [3] is 0.00398 µM. Besides, the LD50 in series [4] was > 500 mg/kg.
In the case of `CS(=O)(=O)Nc1ccccc1OC/C=C\CN1CCC(OC(c2ccccc2)c2cccs2)CC1` (stereo not drawn) [Example 40, 4-(phenyl-2-thienylmethoxy)-1-[4-(2-methanesulfonylaminophenoxy)-2(Z)-butenyl]piperidine], in series [1], the IC25 worked out at 0.1 µM. The Kb in series [3] is 0.00631 µM. Besides, the LD50 in series [4] was > 500 mg/kg.
`CS(=O)(=O)Nc1ccccc1OCCCN1CCC(OC(c2ccsc2)c2ccsc2)CC1` [Example 44 (fumarate)]: the IC25 in series [1] amounted to 0.03 µM. Besides, the Kb in series [3] is 0.00251 µM.
Turning to `CS(=O)(=O)Nc1ccccc1OCCCN1CCC(OC(c2ccsc2)c2ccsc2)CC1` [Example 44, 4-di(3-thienyl)methoxy-1-[3-(2-methanesulfonylaminophenoxy)propyl]piperidine], the “Contractive force (Δ %)” value in series [2] (0.1 μg/heart) is given as 8.8 ± 2.5%; in series [2] (setting [5]) it was 19.1 ± 5.7%; in series [2] (setting [6]) it was 16.2 ± 11.3%; in series [2] (setting [7]), -46.3 ± 19.4%. In addition, the “Heart rate (Δ %)” value is recorded as -5.7 ± 1.4% in series [2] (0.1 μg/heart), -3.6 ± 4.1% in series [2] (1 μg/heart), -6.3 ± 1.5% in series [2] (setting [6]) and -59.9 ± 11.1% in series [2] (setting [7]). The “Perfusion pressure (Δ %)” value in series [2] (0.1 μg/heart) was -6.0 ± 13.7%; in series [2] (setting [5]) it was -28.9 ± 3.0%; in series [2] (setting [6]) it was -47.9 ± 4.8%; in series [2] (setting [7]), -55.8 ± 3.5%. The LD50 in series [4] was > 500 mg/kg.
Turning to `O=c1[nH]c2ccccc2n1CCCN1CCN(C(c2ccccc2)c2ccccc2)CC1` [Oxatomide, reference compound], the IC25 in series [1] amounted to 100 µM. For the same molecule, in series [3], the Kb was 0.00126 µM.

(Values after patent US5190959A, “Piperidine compounds which have useful pharmaceutical activity” (Kaken Pharmaceutical Co. Ltd., priority 1991, dated 1993).)
